Results published in US12209102B2, “Heterocyclic compounds and uses thereof” (Kumquat Biosciences Inc., priority 2022, dated 2025).

Columns and labels:
K-Ras G12D = biological target: T1, K-Ras G12D (Homo sapiens, UniProt P01116, G12D); assay: HTRF resonance energy transfer assay, K-Ras G12D / SOS1 interaction; type: biochemical; settings: HTRF assay of Example 5; read-out: IC50 against K-Ras G12D
T1 construct: made in house; host or cells: E. coli BL21 (DE3)
Procedure, shortened: (§1)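 Read-out: HTRF 665/620 nm ratio (excitation 337 nm) after roughly 10 min or longer incubation, used to derive IC50. Donor anti-GST-Eu on GST-K-Ras; acceptor anti-6His-XL665 on His-hSOS1. Duplicate dose series from 10 μM down to 0.01 μM.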

GP2D cells = assay: Ras cellular assay, growth of cells with K-Ras G12D mutation (CellTiter-Glo); type: cell-based; settings: cell growth, Example 9, G12D mutation, read-out: IC50 against GP2D cells
K-Ras G12S = biological target: T2, K-Ras G12S (Homo sapiens, UniProt P01116, G12S); assay: HTRF resonance energy transfer assay, K-Ras G12S / SOS1 interaction; type: biochemical; settings: HTRF assay of Example 5; read-out: IC50 against K-Ras G12S
T2 construct: made in house; host or cells: E. coli BL21 (DE3)
T2 sequence (P01116 1-188 isoform P01116-2 G12S): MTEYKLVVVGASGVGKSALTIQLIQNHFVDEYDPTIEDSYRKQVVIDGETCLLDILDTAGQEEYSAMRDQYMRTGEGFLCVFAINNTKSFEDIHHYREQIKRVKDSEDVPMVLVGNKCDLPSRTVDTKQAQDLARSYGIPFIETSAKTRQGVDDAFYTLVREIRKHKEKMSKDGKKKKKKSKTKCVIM
Procedure, shortened: as §1

A549 cells = assay: Ras cellular assay, growth of cells with K-Ras G12S mutation (CellTiter-Glo); type: cell-based; settings: Homo sapiens, cell growth, Example 9, G12S mutation, read-out: IC50 against A549 cells
Procedure, shortened: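 A549 cells (K-Ras G12S) in RPMI-1640 with 10% heat-inactivated FBS, seeded e.g. 800 per well in standard or ultra-low-attachment 384-well plates, treated next day with a dilution series (e.g. 10-point, 3-fold). Viability by CellTiter-Glo luminescence about 6 days later; IC50 from four-parameter fit.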

K-Ras WT = biological target: T3, K-Ras WT (Homo sapiens, UniProt P01116); assay: HTRF resonance energy transfer assay, K-Ras WT / SOS1 interaction; type: biochemical; settings: HTRF assay of Example 5; read-out: IC50 against K-Ras WT
T3 construct: made in house; host or cells: E. coli BL21 (DE3)
T3 sequence (P01116 1-188 isoform P01116-2): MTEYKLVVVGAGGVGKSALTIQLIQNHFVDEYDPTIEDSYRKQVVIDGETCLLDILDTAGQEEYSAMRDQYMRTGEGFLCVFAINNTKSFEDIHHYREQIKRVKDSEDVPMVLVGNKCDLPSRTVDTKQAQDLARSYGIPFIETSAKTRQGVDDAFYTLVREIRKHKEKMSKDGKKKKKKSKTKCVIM
Procedure, shortened: as §1

K-Ras G12V = biological target: T4, K-Ras G12V (Homo sapiens, UniProt P01116, G12V); assay: HTRF resonance energy transfer assay, K-Ras G12V / SOS1 interaction; type: biochemical; settings: HTRF assay of Example 5; read-out: IC50 against K-Ras G12V
T4 construct: made in house; host or cells: E. coli BL21 (DE3)
T4 sequence (P01116 1-188 isoform P01116-2 G12V): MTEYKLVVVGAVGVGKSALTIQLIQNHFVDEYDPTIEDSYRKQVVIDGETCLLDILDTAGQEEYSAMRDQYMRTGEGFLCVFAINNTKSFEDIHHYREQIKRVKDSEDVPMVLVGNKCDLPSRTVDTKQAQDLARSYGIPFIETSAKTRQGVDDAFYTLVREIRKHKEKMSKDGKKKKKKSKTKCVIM
Procedure, shortened: as §1

SW620 cells = assay: Ras cellular assay, growth of cells with K-Ras G12V mutation (CellTiter-Glo); type: cell-based; settings: Homo sapiens, SW-620; cell growth, Example 9, G12V mutation; read-out: IC50 against SW620 cells
Procedure, shortened: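 SW620 (K-Ras G12V) cells, e.g. 800/well in RPMI-1640 with 10% heat-inactivated FBS on standard or ultra-low attachment plates, were dosed the day after plating with e.g. a 10-point 3-fold series. Viability by CellTiter-Glo luminescence about 6 days later; IC50 from four-parameter fit.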

T1 sequence (P01116 1-188 isoform P01116-2 G12D): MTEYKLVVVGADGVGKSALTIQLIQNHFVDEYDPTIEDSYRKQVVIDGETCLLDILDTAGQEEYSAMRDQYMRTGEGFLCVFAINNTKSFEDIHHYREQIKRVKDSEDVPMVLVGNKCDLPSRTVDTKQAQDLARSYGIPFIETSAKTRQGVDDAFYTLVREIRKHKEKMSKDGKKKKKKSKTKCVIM

Row | Compound | IC50 (K-Ras G12D) [nM] | IC50 (K-Ras G12S) [nM] | IC50 (A549 cells) [nM] | IC50 (K-Ras WT) [nM] | IC50 (K-Ras G12V) [nM] | IC50 (SW620 cells) [nM] | IC50 (GP2D cells) [nM]
1 | N#CCCC1CN(CC(F)F)c2nc(OC[C@@]34CCCN3C[C@H](F)C4)nc3c(F)c(-c4ccc(F)c5sc(N)c(C#N)c45)c(Cl)c(c23)O1 (stereo partly drawn) [Compound 704, 2-amino-4-(8-chloro-6-(2-cyanoethyl)-4-(2,2-difluoroethyl)-10-fluoro-2-(((2R,7aS)-2-fluorotetrahydro-1H-pyrrolizin-7a(5H)-yl)methoxy)-5,6-dihydro-4H-[1,4]oxazepino[5,6,7-de]quinazolin-9-yl)-7-fluorobenzo[b]thiophene-3-carbonitrile] | < 100 | < 100 | < 5000 | < 100 | < 100 | < 5000 | < 500
2 | COC1(C)CC(N2CCOc3c(Cl)c(-c4ccc(F)c5sc(N)c(C#N)c45)c(F)c4nc(OC[C@@]56CCCN5C[C@H](F)C6)nc2c34)C1 (stereo partly drawn) [Compound 737, 2-amino-4-(8-chloro-10-fluoro-2-(((2R,7aS)-2-fluorotetrahydro-1H-pyrrolizin-7a(5H)-yl)methoxy)-4-(3-methoxy-3-methylcyclobutyl)-5,6-dihydro-4H-[1,4]oxazepino[5,6,7-de]quinazolin-9-yl)-7-fluorobenzo[b]thiophene-3-carbonitrile] | < 100 | < 100 | < 5000 | < 100 | < 100 | < 5000 | < 500
3 | N#Cc1c(N)sc2c(F)ccc(-c3c(Cl)c4c5c(nc(OC[C@@]67CCCN6C[C@H](F)C7)nc5c3F)N([C@H]3CCN(C(=O)C(F)F)C3)CCO4)c12 [Compound 940, 2-amino-4-(8-chloro-4-((S)-1-(2,2-difluoroacetyl)pyrrolidin-3-yl)-10-fluoro-2-(((2R,7aS)-2-fluorotetrahydro-1H-pyrrolizin-7a(5H)-yl)methoxy)-5,6-dihydro-4H-[1,4]oxazepino[5,6,7-de]quinazolin-9-yl)-7-fluorobenzo[b]thiophene-3-carbonitrile] | < 100 | < 100 | < 5000 | < 100 | < 100 | < 5000 | < 500
4 | C#Cc1c(F)ccc2cc(O)cc(-c3nc4c5c(nc(OC[C@@]67CCCN6C[C@H](F)C7)nc5c3F)N(C3CCCOC3)CCO4)c12 (stereo partly drawn) [Compound 661, 5-ethynyl-6-fluoro-4-(4-fluoro-2-(((2R,7aS)-2-fluorotetrahydro-1H-pyrrolizin-7a(5H)-yl)methoxy)-10-(tetrahydro-2H-pyran-3-yl)-9,10-dihydro-8H-7-oxa-1,3,6,10-tetraazacyclohepta[de]naphthalen-5-yl)naphthalen-2-ol] | < 100 | < 100 | < 5000 | < 100 | < 100 | < 5000 | < 500
5 | C[C@@H](O)[C@H]1COc2c(Cl)c(-c3ccc(F)c4sc(N)c(C#N)c34)c(F)c3nc(OC[C@@]45CCCN4C[C@H](F)C5)nc(c23)N1CCC(F)F (single isomer, unassigned) [Compound 820] | < 100 | < 100 | < 5000 | < 100 | < 100 | < 5000 | < 500
6 | COCC(C)N1CCOc2c(Cl)c(-c3ccc(F)c4sc(N)c(C#N)c34)c(F)c3nc(OC[C@@]45CCCN4C[C@H](F)C5)nc1c23 (stereo partly drawn) [Compound 670, 2-amino-4-(8-chloro-10-fluoro-2-(((2R,7aS)-2-fluorotetrahydro-1H-pyrrolizin-7a(5H)-yl)methoxy)-4-(1-methoxypropan-2-yl)-5,6-dihydro-4H-[1,4]oxazepino[5,6,7-de]quinazolin-9-yl)-7-fluorobenzo[b]thiophene-3-carbonitrile] | < 100 | < 100 | < 5000 | < 100 | < 100 | < 5000 | < 500

Now from value to compound, other results behind:

Row | IC50 (K-Ras G12D) [nM] | IC50 (K-Ras G12S) [nM] | IC50 (A549 cells) [nM] | IC50 (K-Ras WT) [nM] | IC50 (K-Ras G12V) [nM] | IC50 (SW620 cells) [nM] | Compound | IC50 (GP2D cells) [nM]
7 | < 100 | < 100 | < 5000 | < 100 | < 100 | < 5000 | N#Cc1c(N)sc2c(F)ccc(-c3c(Cl)c4c5c(nc(OC[C@@]67CCCN6C[C@H](F)C7)nc5c3F)N(C3(C(F)F)CC3)CCO4)c12 [Compound 1060, 2-amino-4-(8-chloro-4-(1-(difluoromethyl)cyclopropyl)-10-fluoro-2-(((2R,7aS)-2-fluorotetrahydro-1H-pyrrolizin-7a(5H)-yl)methoxy)-5,6-dihydro-4H-[1,4]oxazepino[5,6,7-de]quinazolin-9-yl)-7-fluorobenzo[b]thiophene-3-carbonitrile] | < 500
8 | < 100 | < 100 | < 5000 | < 100 | < 100 | < 5000 | C[C@@H]1CCOc2c(Cl)c(-c3ccc(F)c4sc(N)c(C#N)c34)c(F)c3nc(OC[C@@]45CCCN4C[C@H](F)C5)nc(c23)N1CC(F)F [Compound 1203, 2-amino-4-((R)-9-chloro-4-(2,2-difluoroethyl)-11-fluoro-2-(((2R,7aS)-2-fluorotetrahydro-1H-pyrrolizin-7a(5H)-yl)methoxy)-5-methyl-4,5,6,7-tetrahydro-[1,5]oxazocino[4,3,2-de]quinazolin-10-yl)-7-fluorobenzo[b]thiophene-3-carbonitrile] | < 500
9 | < 100 | < 100 | < 5000 | < 100 | < 100 | < 5000 | C[C@@H](O)[C@H]1COc2c(Cl)c(-c3ccc(F)c4sc(N)c(C#N)c34)c(F)c3nc(OC[C@@]45CCCN4C[C@H](F)C5)nc(c23)N1CC(F)F [Compound 1080, 2-amino-4-((5R)-8-chloro-4-(2,2-difluoroethyl)-10-fluoro-2-(((2R,7aS)-2-fluorotetrahydro-1H-pyrrolizin-7a(5H)-yl)methoxy)-5-((R)-1-hydroxyethyl)-5,6-dihydro-4H-[1,4]oxazepino[5,6,7-de]quinazolin-9-yl)-7-fluorobenzo[b]thiophene-3-carbonitrile] | < 500
10 | < 100 | < 100 | < 5000 | < 100 | < 100 | < 5000 | CC(C(F)F)N1CCOc2c(Cl)c(-c3ccc(F)c4sc(N)c(C#N)c34)c(F)c3nc(OC[C@@]45CCCN4C[C@H](F)C5)nc1c23 (stereo partly drawn) [Compound 1000, 2-amino-4-(8-chloro-4-(1,1-difluoropropan-2-yl)-10-fluoro-2-(((2R,7aS)-2-fluorotetrahydro-1H-pyrrolizin-7a(5H)-yl)methoxy)-5,6-dihydro-4H-[1,4]oxazepino[5,6,7-de]quinazolin-9-yl)-7-fluorobenzo[b]thiophene-3-carbonitrile] | < 500
11 | < 100 | < 100 | < 5000 | < 100 | < 100 | < 5000 | CS(=O)(=O)N1CCC(N2CCOc3c(Cl)c(-c4ccc(F)c5sc(N)c(C#N)c45)c(F)c4nc(OC[C@@]56CCCN5C[C@H](F)C6)nc2c34)C1 (stereo partly drawn) [Compound 966, 2-amino-4-(8-chloro-10-fluoro-2-(((2R,7aS)-2-fluorotetrahydro-1H-pyrrolizin-7a(5H)-yl)methoxy)-4-(1-(methylsulfonyl)pyrrolidin-3-yl)-5,6-dihydro-4H-[1,4]oxazepino[5,6,7-de]quinazolin-9-yl)-7-fluorobenzo[b]thiophene-3-carbonitrile] | < 500
